In paper PMC12677599 (Advanced Science, 2025):

Key:
Assay type in all cases: cell-based
H460 cells [1] = assay: Killing rate evaluation, calcein-AM/PI double staining; settings: IC50 concentration, n = 2
Experimental: Calcien‐AM/PI double staining assay was used. NCI‐H460 cells were seeded in a chamber‐slide (154526, Thermo Fisher Scientific) at a density of 100 000 cells per unit in a volume of 500 µL and cultured for 24 h. After starvation with 300 µL of SFM for 4 h, cells were treated with 500 µL of compound solutions with different concentrations for 2, 4, 6, 8, 10 h, respectively. Cells treated with 0.5% DMSO in SFM served as control group. Subsequently, cells in each unit were washed with EBSS once, and incubated with 500 µL of 2 µg mL^−1 calcien‐AM solution at 37 °C for 20 min. Afterward, cells were stained with 500 µL of 2 µg mL^−1 PI solution at room temperature for 15 min and washed with EBSS 3 times. Finally, 300 µL of EBSS was added into each unit. Live (green fluorescence from calcein‐AM) and dead (red fluorescence from PI) cells were then observed and imaged under a fluorescence microscope (LEICA Dmi8). This evaluation was conducted with two biological replicates. Quantitative analyses of living cells were processed with ImageJ software (threshold set: 8‐255).

HEK-293 normal cell line = assay: cells; settings: Homo sapiens, HEK293; Table S11; MTT; read-out: IC50 Value of chemotherapeutics, HEK-293
Outline: (§1)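 MTT assay. Tumor lines seeded at 8000 cells per well (24 h) and serum-starved 4–6 h; normal lines (MRC-5, HEK-293) seeded at 10 000 cells per well (48 h). Compounds for 24 h in SFM, then MTT for 2 h (tumor) or 4 h (normal), absorbance at 570 nm; viability normalized to blank and 0.5% DMSO growth control.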

H460 cell line = assay: cells; settings: Homo sapiens, NCI-H460; Table S11; MTT; read-out: IC50 Value of chemotherapeutics, H460
Outline: as §1

H460 cells [2] = assay: LDH release assay; settings: H460, 4 h dosing at each IC50 value; n = 3
Experimental: The seeding and starvation process were the same as cell antiproliferation evaluation. Cells were treated with 100 µL of compound solutions with different concentrations (compound 266 was tested at 12 µM) for 4 or 24 h. Cells treated with 0.5% DMSO in SFM and 1% Triton X‐100 in SFM served as blank control and positive control, respectively. Afterward, LDH working solution was prepared according to the instructions of the Cytotoxicity Detection Kit (LDH). Fifty µL of supernatant was transferred to another 96‐well plate, and 50 µL of LDH working solution was added to each well, followed by a 40 min incubation at room temperature. Subsequently, the absorbance of each well was measured by the plate reader at 490 nm.
The LDH release ratio was calculated as (3) LDHrelease%=ODSamplegroup−ODBlank/ODPositivegroup−ODBlank×100%

COc1cc([C@@H]2c3cc4c(cc3[C@@H](O[C@@H]3O[C@@H]5CO[C@@H](C)O[C@H]5[C@H](O)[C@H]3O)[C@H]3COC(=O)[C@H]23)OCO4)cc(OC)c1O [Etoposide, etoposide, reference compound]
cells eliminated within 10 h (H460 cells [1]): ≈ 10%
IC50 (HEK-293 normal cell line): 115 ± 14.7 µM
IC50 (H460 cell line): 169 ± 29.2 µM
LDH release ratio (H460 cells [2]): no positive results
